The source of these data is ChEMBL document CHEMBL4425099, “Use of Osmotic Pumps to Establish the Pharmacokinetic-Pharmacodynamic Relationship and Define Desirable Human Performance Characteristics for Aggrecanase Inhibitors” (J Med Chem, 2016).

Data set [1] in a line: Ratio of plasma concentration in Lewis rat model of MIA at 18 mg/mL, […] post 3 days MIA induction to IC50 for human ADAMTS5 in presence of rat plasma. Particulars: in vivo, 72 h. The format is ADME, organism-based.
For data set [2], the system named is Rattus norvegicus. The experiment in a line: Reduction in ADAMTS-4/ADAMTS-5 mediated aggrecan cleavage products in Lewis rat model of MIA assessed as aggrecanase-cleaved fragments at 60 mg/mL administered through infusion pump post 3 days MIA induction measured after 4 hrs of last dosage on day 7 by NITEGE sandwich ELISA. The format is functional.
Data set [3] is described as follows: Ratio of plasma concentration in Lewis rat model of MIA at […], […] administered through infusion pump post 3 days MIA induction to IC50 for human ADAMTS5 in presence of rat plasma. The format is ADME, organism-based. Particulars: in vivo, 72 h.
Data set [4] is described as follows: Solubility of the compound at pH 7.7. The format is physicochemical. Particulars: buffer.
Data set [5] has as its system Rattus norvegicus. The experiment in a line: Reduction in ADAMTS-4/ADAMTS-5 mediated aggrecan cleavage products in Lewis rat model of MIA assessed as aggrecanase-cleaved fragments at 18 mg/mL administered through infusion pump post 3 days MIA induction measured after 4 hrs of last dosage on day 7 by NITEGE sandwich ELISA. The format is functional.
Data set [6] concerns Rattus norvegicus. The experiment in a line: Reduction in ADAMTS-4/ADAMTS-5 mediated aggrecan cleavage products in Lewis rat model of MIA assessed as aggrecanase-cleaved fragments at 6 mg/mL administered through infusion pump post 3 days MIA induction measured after 4 hrs of last dosage on day 7 by NITEGE sandwich ELISA. The format is functional.
The subject of data set [7] is Rattus norvegicus. The experiment in a line: Reduction in meniscal tear-induced osteoarthritis total joint score in Lewis rat surgical model at 30 and 100 mg/kg, po bid relative to vehicle control. The format is functional, organism-based.
Data set [8] has as its system Rattus norvegicus. The data set is described as follows: Reduction in ADAMTS-4/ADAMTS-5 mediated aggrecan cleavage products in Lewis rat model of MIA assessed as aggrecanase-cleaved fragments at […] administered through infusion pump post 3 days MIA induction measured after 4 hrs of last dosage on day 7 by NITEGE sandwich ELISA. The format is functional.
The nature of data set [9]: Oral bioavailability in rat at 10 mg/kg. Particulars: in vivo. The format is ADME, organism-based.
Data set [10] in a line: Plasma concentration in Lewis rat model of MIA at […], po administered through infusion pump post 3 days MIA induction. The format is ADME, organism-based.
Data set [11] can be described thus: Plasma concentration in Lewis rat model of MIA at 18 mg/mL, […] post 3 days MIA induction. The format is ADME, organism-based.
Data set [12] in a line: Ratio of plasma concentration in Lewis rat model of MIA at 60 mg/mL, […] post 3 days MIA induction to IC50 for human ADAMTS5 in presence of rat plasma. The format is ADME, organism-based. Particulars: in vivo, 72 h.
The nature of data set [13]: Ratio of plasma concentration in Lewis rat model of MIA at 6 mg/mL, […] post 3 days MIA induction to IC50 for human ADAMTS5 in presence of rat plasma. The format is ADME, organism-based. Particulars: in vivo, 72 h.
Data set [14] is described as follows: Plasma concentration in Lewis rat model of MIA at 60 mg/mL, […] post 3 days MIA induction. The format is ADME, organism-based.
Data set [15] can be described thus: Solubility of the compound at pH 2. The format is physicochemical. Particulars: buffer.
Data set [16] in a line: Ratio of plasma concentration in Lewis rat model of MIA at 4.3 mg/mL, sc administered through infusion pump post 3 days MIA induction to IC50 for human ADAMTS5 in presence of rat plasma. The format is ADME, organism-based. Particulars: in vivo, 72 h.
Data set [17] has as its system Rattus norvegicus. The data set is described as follows: Reduction in ADAMTS-4/ADAMTS-5 mediated aggrecan cleavage products in Lewis rat model of MIA assessed as aggrecanase-cleaved fragments at 4.3 mg/mL, sc administered through infusion pump post 3 days MIA induction measured after 4 hrs of last dosage on day 7 by NITEGE sandwich ELISA. The format is functional.

The nature of data set [18]: Dissociation constant, basic pKa of the compound. The format is physicochemical.
Data set [19] can be described thus: Ratio of plasma concentration in Lewis rat model of MIA at 30 mg/kg, po bid administered post 3 days MIA induction measured after 12 hrs of last dosage on day 7 to IC50 for human ADAMTS5 in presence of Lewis rat plasma. The format is ADME, organism-based. Particulars: in vivo.
A short description of data set [20]: Ratio of plasma concentration in Lewis rat model of MIA at 10 mg/mL, sc administered through infusion pump post 3 days MIA induction to IC50 for human ADAMTS5 in presence of rat plasma. The format is ADME, organism-based. Particulars: in vivo, 72 h.
The nature of data set [21]: Ratio of plasma concentration in Lewis rat model of MIA at 30 mg/kg, po bid administered post 3 days MIA induction measured after 1 hr of last dosage on day 7 to IC50 for human ADAMTS5 in presence of Lewis rat plasma. The format is ADME, organism-based. Particulars: in vivo.
Data set [22] can be described thus: Ratio of plasma concentration in Lewis rat model of MIA at 30 mg/mL, sc administered through infusion pump post 3 days MIA induction to IC50 for human ADAMTS5 in presence of rat plasma. The format is ADME, organism-based. Particulars: in vivo, 72 h.
Data set [23] in a line: Solubility of the compound at pH 2.2. Particulars: buffer. The format is physicochemical.
Data set [24] can be described thus: Plasma concentration in Lewis rat model of MIA at 10 mg/mL, sc administered through infusion pump post 3 days MIA induction. The format is ADME, organism-based.
In data set [25] the test system is Rattus norvegicus. The experiment in a line: Reduction in ADAMTS-4/ADAMTS-5 mediated aggrecan cleavage products in Lewis rat model of MIA assessed as aggrecanase-cleaved fragments at 30 mg/mL, sc administered through infusion pump post 3 days MIA induction measured after 4 hrs of last dosage on day 7 by NITEGE sandwich ELISA. The format is functional.
Data set [26] can be described thus: Plasma concentration in Lewis rat model of MIA at 4.3 mg/mL, sc administered through infusion pump post 3 days MIA induction. The format is ADME, organism-based.
The test system of data set [27] is Rattus norvegicus. The data set is described as follows: Reduction in ADAMTS-4/ADAMTS-5 mediated aggrecan cleavage products in Lewis rat model of MIA assessed as aggrecanase-cleaved fragments at 10 mg/mL, sc administered through infusion pump post 3 days MIA induction measured after 4 hrs of last dosage on day 7 by NITEGE sandwich ELISA. The format is functional.

The nature of data set [28]: Plasma concentration in Lewis rat model of MIA at 30 mg/mL, sc administered through infusion pump post 3 days MIA induction. The format is ADME, organism-based.
Data set [29] is described as follows: Ratio of plasma concentration in Lewis rat model of MIA at 1.44 mg/mL, sc administered through infusion pump post 3 days MIA induction to IC50 for human ADAMTS5 in presence of rat plasma. The format is ADME, organism-based. Particulars: in vivo, 72 h.
Data set [30] in a line: Tmax in Lewis rat plasma at 30 mg/kg, po. The format is ADME, organism-based.
Data set [31] is described as follows: Plasma concentration in Lewis rat model of MIA at 1.44 mg/mL, sc administered through infusion pump post 3 days MIA induction. The format is ADME, organism-based.

Structures are written as SMILES. In brackets after ≈: the same amount, converted by molar mass. Activity calls are given as the source filed them. No cut-off for these calls is given here.

For the compound `O=C1NC(=O)[C@](CNC(=O)c2cc3cc(C(F)(F)F)ccc3o2)(C2CC2)N1`, the Ratio in data set [1] is on record as 35; in [3], 3.2; in [12], 46; in data set [13], 10. The “inhibition (INH)” value in the data set on Rattus norvegicus [2] was 59%; in the data set on Rattus norvegicus [5], 56%; in the data set on Rattus norvegicus [6] it was 44%; with Rattus norvegicus [8], 21%. Further, the results for the solubility in data set [4] and in data set [15] were 16 µg/mL (≈ 42 µM) and 12 µg/mL (≈ 31.5 µM), respectively. For the same compound, the inhibition result with Rattus norvegicus [7] is “Active”. The same compound had a bioavailability in [9] of 83%. The concentration at 72 h in data set [10] amounted to 200 nM; in [11], 2200 nM; in data set [14], 2900 nM.

As to `Cn1ccnc1[C@]1(CNC(=O)c2cc3cc(C(F)(F)F)ccc3o2)NC(=O)NC1=O`, the Ratio in data set [16] stood at 10; in [19], 10; in [20], 31; in [21] it was 2000; in data set [22] it was 100; in data set [29], 3.7. Further, the “inhibition (INH)” value was determined as 57% with Rattus norvegicus [17], 76% in the data set on Rattus norvegicus [25] and 64% in the data set with Rattus norvegicus [27]. Further, in [18], the pKa amounted to 3.67. Further, the solubility in data set [23] was 1750 µg/mL (≈ 4150 µM). Moreover, the concentration at 72 h was 1100 nM in [24], 360 nM in data set [26], 3600 nM in [28] and 130 nM in data set [31]. In addition, the Tmax in data set [30] is 1 h.
